Reference: US8163793B2, “Proline derivatives” (Hoffman-La Roche Inc., priority 2009, dated 2012)

Tests used:
Cathepsin S = Cathepsin S (UniProt P25774); experiment: Cathepsin enzyme inhibition assay (fluorogenic peptide substrate Z-Val-Val-Arg-AMC), Cathepsin S; assay type: biochemical, human and mouse; settings: enzyme 1 nM, substrate 20 μM, pH 6.5; read-out: CatS IC50
Method in brief: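 Compounds were combined with 1 nM human or mouse enzyme, and substrate then started the reaction. The buffer was potassium phosphate (100 mM, pH 6.5) containing EDTA-Na 5 mM, Triton X-100 0.001% and […] 5 mM.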

Cat L = Cat L (UniProt P07711); experiment: Cathepsin enzyme inhibition assay (fluorogenic peptide substrate Z-Val-Val-Arg-AMC), Cathepsin L; assay type: biochemical, human and mouse; settings: enzyme 1 nM, substrate 20 μM, pH 6.5; read-out: CatL IC50
Method in brief: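 Fluorogenic cleavage of Z-Val-Val-Arg-AMC (20 μM) by 1 nM Cat L was monitored at ex 360/em 465 nm for 20 min, the linear phase. The buffer was 100 mM potassium phosphate pH 6.5 with 5 mM EDTA and DTT. IC50 values were derived by standard methods, in μM.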

| IC50 (Cathepsin S) | IC50 (Cat L) | Structure (SMILES) |
| --- | --- | --- |
| 70 nM | 4410 nM | N#CC1(NC(=O)[C@@H]2C[C@@H](S(=O)(=O)c3ccccc3Cl)CN2C(=O)C2(Oc3ccc(Cl)cc3)CC2)CC1 [Example 473, (2S,4R)-4-(2-Chloro-benzenesulfonyl)-1-[1-(4-chloro-phenoxy)-cyclopropanecarbonyl]-pyrrolidine-2-carboxylic acid (1-cyano-cyclopropyl)-amide] |
| 2.4 nM | 1540 nM | Cc1cc(N2C[C@H](S(=O)(=O)c3ccccc3Cl)C[C@H]2C(=O)NC2(C#N)CC2)n(CCCc2ccccc2)n1 [Example 474, (2S,4R)-4-(2-Chloro-benzenesulfonyl)-1-[5-methyl-2-(3-phenyl-propyl)-2H-pyrazol-3-yl]-pyrrolidine-2-carboxylic acid (1-cyano-cyclopropyl)-amide] |
| 6.6 nM | 4760 nM | Cc1cc(N2C[C@H](S(=O)(=O)c3ccccc3Cl)C[C@H]2C(=O)NC2(C#N)CC2)n(Cc2cncn2C)n1 [Example 476, (2S,4R)-4-(2-Chloro-benzenesulfonyl)-1-[5-methyl-2-(3-methyl-3H-imidazol-4-ylmethyl)-2H-pyrazol-3-yl]-pyrrolidine-2-carboxylic acid (1-cyano-cyclopropyl)-amide] |
| 0.6 nM | 318 nM | Cc1cc(N2C[C@H](S(=O)(=O)c3ccccc3Cl)C[C@H]2C(=O)NC2(C#N)CC2)n(C2CCCCC2)n1 [Example 477, (2S,4R)-4-(2-Chloro-benzenesulfonyl)-1-(2-cyclohexyl-5-methyl-2H-pyrazol-3-yl)-pyrrolidine-2-carboxylic acid (1-cyano-cyclopropyl)-amide] |
| 3.1 nM | 3670 nM | Cc1cc(N2C[C@H](S(=O)(=O)c3ccccc3Cl)C[C@H]2C(=O)NC2(C#N)CC2)n(C2CCOCC2)n1 [Example 478, (2S,4R)-4-(2-Chloro-benzenesulfonyl)-1-[5-methyl-2-(tetrahydro-pyran-4-yl)-2H-pyrazol-3-yl]-pyrrolidine-2-carboxylic acid (1-cyano-cyclopropyl)-amide] |
| 3.24 nM | 3070 nM | Cc1cc(N2C[C@H](S(=O)(=O)c3ccccc3Cl)C[C@H]2C(=O)NC2(C#N)CC2)n(C2CCS(=O)(=O)CC2)n1 [Example 479, (2S,4R)-4-[(2-Chlorophenyl)sulfonyl]-N-(1-cyanocyclopropyl)-1-[1-(1,1-dioxidotetrahydro-2H-thiopyran-4-yl)-3-methyl-1H-pyrazol-5-yl]-L-prolinamide] |
| 1.05 nM | 5360 nM | Cc1cc(N2C[C@H](S(=O)(=O)c3ccc(OCC(F)(F)F)cc3Cl)C[C@H]2C(=O)NC2(C#N)CC2)n(C2CCC2)n1 [Example 480, (2S,4R)-4-[2-Chloro-4-(2,2,2-trifluoro-ethoxy)-benzenesulfonyl]-1-(2-cyclobutyl-5-methyl-2H-pyrazol-3-yl)-pyrrolidine-2-carboxylic acid (1-cyano-cyclopropyl)-amide] |
| 0.6 nM | 1270 nM | Cc1cc(N2C[C@H](S(=O)(=O)c3ccc(N4CCN(C(C)(C)C)CC4)cc3Cl)C[C@H]2C(=O)NC2(C#N)CC2)n(C2CCOCC2)n1 [Example 481, (2S,4R)-4-[4-(4-tert-Butyl-piperazin-1-yl)-2-chloro-benzenesulfonyl]-1-[5-methyl-2-(tetrahydro-pyran-4-yl)-2H-pyrazol-3-yl]-pyrrolidine-2-carboxylic acid (1-cyano-cyclopropyl)-amide] |
| 0.765 nM | 2710 nM | Cc1cc(N2C[C@H](S(=O)(=O)c3ccc(OCC(F)(F)F)cc3Cl)C[C@H]2C(=O)NC2(C#N)CC2)n(C2CCOCC2)n1 [Example 482, (2S,4R)-4-[2-Chloro-4-(2,2,2-trifluoro-ethoxy)-benzenesulfonyl]-1-[5-methyl-2-(tetrahydro-pyran-4-yl)-2H-pyrazol-3-yl]-pyrrolidine-2-carboxylic acid (1-cyano-cyclopropyl)-amide] |
| 1.34 nM | 521 nM | Cc1cc(N2C[C@H](S(=O)(=O)c3ccc(N4CC(F)(F)C4)cc3Cl)C[C@H]2C(=O)NC2(C#N)CC2)n(CCc2ccccc2)n1 [Example 483, (2S,4R)-4-[2-Chloro-4-(3,3-difluoro-azetidin-1-yl)-benzenesulfonyl]-1-(5-methyl-2-phenethyl-2H-pyrazol-3-yl)-pyrrolidine-2-carboxylic acid (1-cyano-cyclopropyl)-amide] |
| 3.31 nM | 1550 nM | Cc1cc(N2C[C@H](S(=O)(=O)c3ccc(OCC(F)(F)F)cc3Cl)C[C@H]2C(=O)NC2(C#N)CC2)n(CCc2ccccc2)n1 [Example 484, (2S,4R)-4-[2-Chloro-4-(2,2,2-trifluoro-ethoxy)-benzenesulfonyl]-1-(5-methyl-2-phenethyl-2H-pyrazol-3-yl)-pyrrolidine-2-carboxylic acid (1-cyano-cyclopropyl)-amide] |
| 0.9 nM | 275 nM | Cc1cc(N2C[C@H](S(=O)(=O)c3ccc(N4CCN(C(C)(C)C)CC4)cc3Cl)C[C@H]2C(=O)NC2(C#N)CC2)n(CCc2ccccc2)n1 [Example 485, (2S,4R)-4-[4-(4-tert-Butyl-piperazin-1-yl)-2-chloro-benzenesulfonyl]-1-(5-methyl-2-phenethyl-2H-pyrazol-3-yl)-pyrrolidine-2-carboxylic acid (1-cyano-cyclopropyl)-amide] |
| 0.85 nM | 22000 nM | N#CC1(NC(=O)[C@@H]2C[C@@H](S(=O)(=O)c3ccccc3Cl)CN2c2nc(Cl)ns2)CC1 [Example 486, (2S,4R)-4-(2-Chloro-benzenesulfonyl)-1-(3-chloro-[1,2,4]thiadiazol-5-yl)-pyrrolidine-2-carboxylic acid (1-cyano-cyclopropyl)-amide] |
| 2.5 nM | 3880 nM | COCCOc1ccc(S(=O)(=O)[C@@H]2C[C@@H](C(=O)NC3(C#N)CC3)N(c3cc(C)nn3C3CCOCC3)C2)c(Cl)c1 [Example 488, (2S,4R)-4-[2-Chloro-4-(2-methoxy-ethoxy)-benzenesulfonyl]-1-[5-methyl-2-(tetrahydro-pyran-4-yl)-2H-pyrazol-3-yl]-pyrrolidine-2-carboxylic acid (1-cyano-cyclopropyl)-amide] |
| 0.51 nM | 3540 nM | COCCOc1ccc(S(=O)(=O)[C@@H]2C[C@@H](C(=O)NC3(C#N)CC3)N(c3cc(C)nn3C3CCC3)C2)c(Cl)c1 [Example 489, (2S,4R)-4-[2-Chloro-4-(2-methoxy-ethoxy)-benzenesulfonyl]-1-(2-cyclobutyl-5-methyl-2H-pyrazol-3-yl)-pyrrolidine-2-carboxylic acid (1-cyano-cyclopropyl)-amide] |
| 0.94 nM | 4330 nM | Cc1cc(N2C[C@H](S(=O)(=O)c3ccc(-n4cccn4)cc3Cl)C[C@H]2C(=O)NC2(C#N)CC2)n(C2CCOCC2)n1 [Example 490] |
| 0.655 nM | 5280 nM | Cc1cc(N2C[C@H](S(=O)(=O)c3ccc(-n4cccn4)cc3Cl)C[C@H]2C(=O)NC2(C#N)CC2)n(C2CCC2)n1 [Example 491, (2S,4R)-4-(2-Chloro-4-pyrazol-1-yl-benzenesulfonyl)-1-(2-cyclobutyl-5-methyl-2H-pyrazol-3-yl)-pyrrolidine-2-carboxylic acid (1-cyano-cyclopropyl)-amide] |
